Assay: Dissolved amount (solubility) in pure water
Settings: stirring for 30 minutes, filtering with 0.5 μm filter, insoluble matter measured
Protocol: The content of the water-insoluble organic sulfonic acid and/or the metal salt thereof is 0.01 to 3.0 pts·mass to 100 pts·mass of the aromatic polycarbonate resin. […] The dissolved amount per 100 g of pure water can be calculated by mixing 3 g of sample with 100 g of pure water, stirring for 30 minutes, and then filtering it with 0.5 μm filter to measure the insoluble matter.

SMILES: O=S(=O)([O-])C(F)(F)C(F)(F)C(F)(F)C(F)(F)F.[K+] [b-2, potassium perfluorobutanesulfonate]
- A dissolved amount (solubility): 4.6 g/100 g of pure water

SMILES: Cc1ccc(S(=O)(=O)[O-])cc1.[Na+] [b-3, sodium paratoluenesulfonic acid]
- A dissolved amount (solubility): 24.0 g/100 g of pure water
